Assay results from patent EP2253620B1, “SUBSTITUTED 3-CYANOQUINOLINES AS PROTEIN TYROSINE KINASES INHIBITORS” (Wyeth Holdings LLC, priority 1998, dated 2000).
In brackets after ≈: the same amount, converted by molar mass. Like-named read-outs stand apart in the source and are kept apart here.

What was measured:
[1] = biological target: T1, epidermal growth factor receptor kinase (Homo sapiens, UniProt P00533); test: Inhibition of Epidermal Growth Factor Receptor Kinase (EGF-R) using recombinant enzyme; type: biochemical; details: averages of the individual determinations
T1 construct: containing the EGFR cDNA encoding amino acids 645 - 1186 preceded by Met-Ala-(His)6; made in house; host or cells: Sf9 insect cells, recombinant baculovirus vHcEGFR52
T1 sequence (P00533 669-1210): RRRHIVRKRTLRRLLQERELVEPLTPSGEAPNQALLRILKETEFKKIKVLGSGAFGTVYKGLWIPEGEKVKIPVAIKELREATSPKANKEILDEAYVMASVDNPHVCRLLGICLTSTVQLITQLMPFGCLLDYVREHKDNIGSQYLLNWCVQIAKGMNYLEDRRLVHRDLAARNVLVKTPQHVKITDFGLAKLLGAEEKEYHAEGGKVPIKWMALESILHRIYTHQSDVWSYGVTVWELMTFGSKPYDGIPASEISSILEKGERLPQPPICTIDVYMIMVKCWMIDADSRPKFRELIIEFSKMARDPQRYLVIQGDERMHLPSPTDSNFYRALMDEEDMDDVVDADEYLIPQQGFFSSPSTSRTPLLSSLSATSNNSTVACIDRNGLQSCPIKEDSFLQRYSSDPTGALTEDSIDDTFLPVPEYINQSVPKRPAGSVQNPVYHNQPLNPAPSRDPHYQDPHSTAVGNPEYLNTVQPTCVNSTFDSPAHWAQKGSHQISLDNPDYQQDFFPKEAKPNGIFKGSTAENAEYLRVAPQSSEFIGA
Method: Representative test compounds were evaluated for their ability to inhibit the phosphorylation of the tyrosine residue of a peptide substrate catalyzed by the enzyme epidermal growth factor receptor kinase. […] The enzyme used in this assay is the His-tagged cytoplasmic domain of EGFR. A recombinant baculovirus (vHcEGFR52) was constructed containing the EGFR cDNA encoding amino acids 645 - 1186 preceded by Met-Ala-(His)6. Sf9 cells in 100 mm plates were infected at an moi of 10 pfu/cell and cells were harvested 48 h post infection. A cytoplasmic extract was prepared using 1% Triton X-100 and applied to Ni-NTA column. After washing the column with 20 mM imidazole, HcEGFR was eluted with 250 mM imidazole (in 50 mM Na2HPO4, pH 8.0, 300 mM NaCl). Fractions collected were dialyzed against 10 mM HEPES, pH 7.0, 50 mM NaCl, 10% glycerol, 1ug/mL antipain and leupeptin and 0.1 mM Pefabloc SC. The protein was frozen in dry ice/methanol and stored -70°C.
Test compounds were made into 10 mg/mL stock solutions in 100% dimethylsulfoxide (DMSO). Prior to experiment, stock solutions were diluted to 500 uM with 100% DMSO and then serially diluted to the desired concentration with HEPES buffer (30 mM HEPES pH 7.4).
For the enzyme reaction, 10 µL of each inhibitor (at various concentrations) were added to each well of a 96-well plate. To this was added 3 µL of enzyme (1:10 dilution in 10mM HEPES, pH 7.4 for final conc. of 1:120). This was allowed to sit for 10 min on ice and was followed by the addition of 5 µl peptide (80 µM final conc.), 10 µl of 4X Buffer (Table A), 0.25 µL ^33P-ATP and 12 µL H2O. The reaction was allowed to run for 90 min at room temperature and was followed by spotting the entire volume on to precut P81 filter papers. The filter discs were washed 2X with 0.5% phosphoric acid and radioactivity was measured using a liquid scintillation counter.
The % inhibition of the test compound was determined for at least three different concentrations and the IC50 value was evaluated from the dose response curve. […] CPM(control) is in units of counts per minute and was a number expressing the amount of radiolabled ATP (g-^33P) incorporated into the RR-SRC peptide substrate by the enzyme after 90 minutes at room temperature in the absence of test compound as measured by liquid scintillation counting. The CPM values were corrected for the background counts produced by ATP in the absence of the enzymatic reaction. The IC50 values in TABLE 1 are averages of the individual determinations.

[2] = biological target: Epithelial Cell Kinase (ECK) (Homo sapiens, UniProt P29317); test: Inhibition of Epithelial Cell Kinase (ECK) tyrosine kinase activity; type: biochemical
Sequence of Epithelial Cell Kinase (ECK) (P29317 24-976, species assumed): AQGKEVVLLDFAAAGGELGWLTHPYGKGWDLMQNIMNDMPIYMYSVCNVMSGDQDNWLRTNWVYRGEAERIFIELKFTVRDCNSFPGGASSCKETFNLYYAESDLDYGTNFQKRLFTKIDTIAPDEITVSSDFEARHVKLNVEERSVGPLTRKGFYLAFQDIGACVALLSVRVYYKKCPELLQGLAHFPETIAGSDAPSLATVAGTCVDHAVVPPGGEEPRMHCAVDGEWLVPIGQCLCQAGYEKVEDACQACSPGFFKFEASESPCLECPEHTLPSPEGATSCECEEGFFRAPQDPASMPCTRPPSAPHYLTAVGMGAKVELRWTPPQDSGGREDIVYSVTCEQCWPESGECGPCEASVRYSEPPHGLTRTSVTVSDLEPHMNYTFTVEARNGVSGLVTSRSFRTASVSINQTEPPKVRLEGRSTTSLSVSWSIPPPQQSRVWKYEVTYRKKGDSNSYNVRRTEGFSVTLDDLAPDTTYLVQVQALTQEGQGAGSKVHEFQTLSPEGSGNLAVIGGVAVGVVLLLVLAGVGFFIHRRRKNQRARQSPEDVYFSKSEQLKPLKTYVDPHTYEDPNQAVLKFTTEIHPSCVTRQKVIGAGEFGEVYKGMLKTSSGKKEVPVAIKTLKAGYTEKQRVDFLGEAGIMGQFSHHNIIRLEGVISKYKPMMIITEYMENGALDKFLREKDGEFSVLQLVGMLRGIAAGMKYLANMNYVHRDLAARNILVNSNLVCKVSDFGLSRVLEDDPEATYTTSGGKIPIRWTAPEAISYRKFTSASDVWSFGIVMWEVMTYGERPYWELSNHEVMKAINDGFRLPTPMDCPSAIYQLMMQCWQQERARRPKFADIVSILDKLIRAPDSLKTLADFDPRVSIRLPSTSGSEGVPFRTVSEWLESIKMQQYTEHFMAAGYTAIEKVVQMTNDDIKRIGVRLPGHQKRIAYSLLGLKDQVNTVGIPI
Method: In this standard pharmacological test procedure, a biotinylated peptide substrate is first immobilized on neutravidin-coated microtiter plates. The test drug, the Epithelial Cell Kinase (ECK), Mg^++, sodium vanadate (a protein tyrosine phosphatase inhibitor), and an appropriate buffer to maintain pH (7.2) are then added to the immobilized substrate-containing microtiter wells. ATP is then added to initiate phosphorylation. After incubation, the assay plates are washed with a suitable buffer leaving behind phosphorylated peptide which is exposed to horse radish peroxidase (HRP)-conjugated anti-phosphotyrosine monoclonal antibody. The antibody-treated plates are washed again and the HRP activity in individual wells is quantified as a reflection of degree of substrate phosphorylation. […] Multiple entries for a given compound indication it was tested multiple times.

Mek and Erk = Mek and Erk (Homo sapiens, UniProt P28482+Q02750); test: Mitogen Activated Protein Kinase (MAPK) coupled assay (Mek-Erk); type: biochemical
Sequence of Mek and Erk (Q02750 whole entry): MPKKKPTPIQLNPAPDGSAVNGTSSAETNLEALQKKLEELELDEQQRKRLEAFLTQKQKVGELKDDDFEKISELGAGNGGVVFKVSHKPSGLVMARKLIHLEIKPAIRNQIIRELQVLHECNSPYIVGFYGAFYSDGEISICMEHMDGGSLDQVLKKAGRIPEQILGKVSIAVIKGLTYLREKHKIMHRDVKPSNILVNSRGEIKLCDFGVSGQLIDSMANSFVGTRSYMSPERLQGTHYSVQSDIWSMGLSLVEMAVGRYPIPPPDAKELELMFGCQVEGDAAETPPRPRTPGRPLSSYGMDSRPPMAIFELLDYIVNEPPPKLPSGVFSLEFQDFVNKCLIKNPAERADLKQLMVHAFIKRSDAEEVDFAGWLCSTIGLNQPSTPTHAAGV
Sequence of Mek and Erk (P28482 2-360): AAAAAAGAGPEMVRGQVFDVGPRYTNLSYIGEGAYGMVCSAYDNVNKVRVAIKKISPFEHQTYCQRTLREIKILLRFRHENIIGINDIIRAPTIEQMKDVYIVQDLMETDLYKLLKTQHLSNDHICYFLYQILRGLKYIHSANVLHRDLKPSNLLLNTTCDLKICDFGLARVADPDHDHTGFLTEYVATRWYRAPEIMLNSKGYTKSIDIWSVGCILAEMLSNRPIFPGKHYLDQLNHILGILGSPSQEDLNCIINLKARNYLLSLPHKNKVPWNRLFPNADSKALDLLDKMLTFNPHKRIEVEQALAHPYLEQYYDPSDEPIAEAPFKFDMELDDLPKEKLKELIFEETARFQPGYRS
Method: Mitogen Activated Protein Kinase (MAPK) Assay
To evaluate inhibitors of the MAP (mitogen activated protein) kinase a two component coupled standard pharmacological test procedure, which measures phosphorylation of a serine/threonine residue in an appropriate sequence in the substrate in the presence and absence of a putative inhibitor, was used. Recombinant human MEK 1 (MAPKK) was first used to activate recombinant human ERK2 (MAPK) and the activated MAPK (ERK) was incubated with substrate (MBP peptide or MYC peptide) in the presence of ATP, Mg^+2 and radiolabeled ^33P ATP. The phosphorylated peptide was captured on a P 81 phosphocellulose filter (paper filter or embedded in microtiter plate) washed and counted by scintillation methods.
The peptide substrates used in the assay are MBP, peptide substrate ([…]), or synthetic Myc substrate, ([…]•5 TFA. The recombinant enzymes used were prepared as GST fusion proteins of human ERK 2 and human MEK 1. Inhibitor samples were prepared as 10X stocks in 10% DMSO and an appropriate aliquot was used to deliver either 10 ug/ml for a single point screening dose or 100, 10, 1, and 0.1 uM final concentration for a dose response curve. Final DMSO concentrations were less than or equal to 1%.
The reaction was run as follows in 50 mM Tris kinase buffer, pH 7.4 in a reaction volume of 50 ul. The appropriate volume of kinase buffer and inhibitor sample was added to the tube. Appropriate dilution of enzyme was delivered to give 2-5 ug recombinant MAPK (Erk ) per tube. The inhibitor was incubated with MAPK (Erk) for 30 min at 0 deg. C. Recombinant Mek (MAPKK) ( 0.5-2.5 ug) or fully activated Mek (0.05-0.1 units) was added to activate the Erk and incubated for 30 min at 30° C. Then substrate and gamma ^33P ATP was were added to give a final concentration of 0.5- 1 mM MBPP or 250-500 uM Myc; 0.2-0.5 uCi gamma P 33 ATP/tube; 50 µM ATP final concentration. Samples were incubated at 30°C for 30 minutes and the reaction was stopped by adding 25 µl of ice cold 10 %TCA .After samples were chilled on ice for 30 min, 20 µl of sample was transferred onto P 81 phosphocellulose filter paper or appropriate MTP with embedded P 81 filter. Filter papers or MTP were washed 2 times with a large volume of 1% acetic acid, then 2 times with water. The filters or MTP were briefly air dried before addition of scintillant and samples were counted in the appropriate scintillation counter set up for reading ^33P isotope. Samples included a positive control (activated enzyme plus substrate); a no enzyme control; a no substrate control; samples with different concentrations of putative inhibitor; and samples with reference inhibitors (other active compounds or non-specific inhibitors such as staurosporine or K252 B).
The raw data was captured as cpm. Sample replicates were averaged and corrected for background count. Mean cpm data was tabulated by group and % inhibition by a test compound was calculated as (corrected cpm control- corrected. cpm sample/control) X 100 = % inhibition. […] The results obtained for representative compounds of this invention are listed in TABLE 2 where there may be separate entries for the same compound; this is an indication that the compound was evaluated more than one time.

erbB2 = erbB2 (Homo sapiens, UniProt P04626); test: erbB2 inhibition at a single concentration; type: biochemical; details: read-out: erbB2 % Inh 2 µg/mL
Sequence of erbB2 (P04626 23-1255): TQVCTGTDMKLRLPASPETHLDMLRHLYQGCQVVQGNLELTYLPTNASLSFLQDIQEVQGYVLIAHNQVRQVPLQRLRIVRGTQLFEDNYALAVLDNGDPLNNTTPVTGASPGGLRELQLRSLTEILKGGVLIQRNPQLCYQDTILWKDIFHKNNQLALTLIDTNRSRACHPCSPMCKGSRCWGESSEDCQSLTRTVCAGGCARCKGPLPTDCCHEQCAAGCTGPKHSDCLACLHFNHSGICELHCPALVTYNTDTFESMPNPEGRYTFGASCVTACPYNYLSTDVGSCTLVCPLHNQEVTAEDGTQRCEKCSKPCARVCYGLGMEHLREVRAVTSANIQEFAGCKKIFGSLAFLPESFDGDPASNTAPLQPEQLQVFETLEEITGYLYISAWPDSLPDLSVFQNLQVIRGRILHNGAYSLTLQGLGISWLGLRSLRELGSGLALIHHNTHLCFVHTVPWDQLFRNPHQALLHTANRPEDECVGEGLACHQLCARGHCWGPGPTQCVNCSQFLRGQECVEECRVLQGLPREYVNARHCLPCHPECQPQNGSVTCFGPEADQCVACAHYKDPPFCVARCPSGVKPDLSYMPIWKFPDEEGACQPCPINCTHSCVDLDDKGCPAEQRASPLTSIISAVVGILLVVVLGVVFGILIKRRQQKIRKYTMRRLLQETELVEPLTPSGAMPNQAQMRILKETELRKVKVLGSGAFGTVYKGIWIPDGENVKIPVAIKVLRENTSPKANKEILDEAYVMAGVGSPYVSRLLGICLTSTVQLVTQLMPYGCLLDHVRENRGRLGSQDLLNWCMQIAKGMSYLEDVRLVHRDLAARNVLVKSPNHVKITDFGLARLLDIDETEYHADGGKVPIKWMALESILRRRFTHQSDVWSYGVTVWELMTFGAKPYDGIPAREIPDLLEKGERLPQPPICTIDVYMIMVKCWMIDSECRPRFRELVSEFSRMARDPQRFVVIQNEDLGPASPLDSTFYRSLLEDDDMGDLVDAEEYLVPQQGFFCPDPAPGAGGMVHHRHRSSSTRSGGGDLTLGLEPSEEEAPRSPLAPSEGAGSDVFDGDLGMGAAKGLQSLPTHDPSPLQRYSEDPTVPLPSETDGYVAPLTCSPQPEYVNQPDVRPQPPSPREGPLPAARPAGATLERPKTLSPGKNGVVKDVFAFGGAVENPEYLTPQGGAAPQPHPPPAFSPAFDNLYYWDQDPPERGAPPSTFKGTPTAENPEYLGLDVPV

A431 = test: Inhibition of Cancer Cell Growth as Measured by Cell Number; type: cell-based, Human; details: Homo sapiens, A-431; 48 hours exposure, Sulforhodamine B
Method: (§1) Inhibition of Cancer Cell Growth as Measured bv Cell Number
(§2) Human tumor cell lines were plated in 96-well plates (250 µl/well, 1-6 x 10^4 cells/ml) in RPMI 1640 medium, containing 5% FBS (Fetal Bovine Serum). […] After 48 hours exposure to test compounds, cells were fixed with trichloroacetic acid, and stained with Sulforhodamine B. After washing with trichloroacetic acid, bound dye was solubilized in 10 mM Tris base and optical density was determined using plate reader. Under conditions of the assay the optical density is proportional to the number of cells in the well. […] The test procedure is described in details by Philip Skehan et. al, J.Natl. Canc. Inst., 82, 1107-1112 (1990). […] Information about some of the cell lines used in these test procedures is available from the American Type Tissue Collection: Cell Lines and Hybridomas, 1994 Reference Guide, 8th Edition.

MDAMB435 = test: as above; type: cell-based, Human; details: Homo sapiens, MDA-MB-435; 48 hours exposure, Sulforhodamine B
Method: as §1, §2

SKBR3 = test: as above; type: cell-based, Human; details: Homo sapiens, SK-BR-3; 48 hours exposure, Sulforhodamine B
Method: as §1, §2

SW620 = test: as above; type: cell-based, Human; details: Homo sapiens, SW-620; 48 hours exposure, Sulforhodamine B
Method: as §1, §2

[3] = coupled MEK 1 / ERK2; separate entries = separate tests; read-out: Mek and Erk

Structure (SMILES)	IC50 [1] [nM]	IC50 (Mek and Erk; [3]) [nM]	inhibition at 2 µg/mL (erbB2) [%]	IC50 (A431) [µg/mL]	IC50 (MDAMB435) [µg/mL]	IC50 (SKBR3) [µg/mL]	IC50 (SW620) [µg/mL]	other results
COCCOCC#CC(=O)Nc1ccc2ncc(C#N)c(Nc3cccc(Br)c3)c2c1 [Example 72, 4-(2-Methoxy-ethoxy)-but-2-ynoic acid [4-(3-bromo-phenylamino)-3-cyano-quinolin-6-yl]-amide]	6	> 100000	96	0.9 (≈ 1.88 µM)	3.5 (≈ 7.3 µM)	0.8 (≈ 1.67 µM)	0.4 (≈ 0.834 µM)	IC50 [2]: > 41700 nM
COCOCC#CC(=O)Nc1ccc2ncc(C#N)c(Nc3cccc(Br)c3)c2c1 [Example 74, 4-Methoxymethoxy-but-2-ynoic acid [4-(3-bromo-phenylamino)-3-cyano-quinolin-6-yl]-amide]	–	> 100000	95	–	–	–	–	IC50 [2]: > 43000 nM
COCCN(CC#CC(=O)Nc1ccc2ncc(C#N)c(Nc3cccc(Br)c3)c2c1)CCOC [Example 75, N-[4-[(3-Bromophenyl)amino]-3-cyano-6-quinolinyl]-4-(bis-(2-methoxyethyl)amino)-2-butynamide]	0.4	100000	–	0.1 (≈ 0.186 µM)	0.2 (≈ 0.373 µM)	0.04 (≈ 0.0746 µM)	0.5 (≈ 0.932 µM)	–
COCCN(C)CC#CC(=O)Nc1ccc2ncc(C#N)c(Nc3cccc(Br)c3)c2c1 [Example 76, N-[4-[(3-Bromophenyl)amino]-3-cyano-6-quinolinyl]-4-(N-methoxyethyl-N-methylamino)-2-butynamide]	10	> 100000	96	0.05 (≈ 0.102 µM)	0.284 (≈ 0.577 µM)	0.031 (≈ 0.063 µM)	0.239 (≈ 0.485 µM)	–
C=CCN(C)CC#CC(=O)Nc1ccc2ncc(C#N)c(Nc3cccc(Br)c3)c2c1 [Example 77, N-[4-[(3-Bromophenyl)amino]-3-cyano-6-quinolinyl]-4-(N-allyl-N-methylamino)-2-butynamide]	6	> 100000	105	0.03 (≈ 0.0632 µM)	0.1 (≈ 0.211 µM)	0.02 (≈ 0.0422 µM)	0.1 (≈ 0.211 µM)	IC50 ([2]; IC50 = concentration that inhibits substrate phosphorylation by 50%): 42200 nM
CN1CCC=C(C(=O)Nc2ccc3ncc(C#N)c(Nc4cccc(Br)c4)c3c2)C1 [Example 78, 1-Methyl-1,2,5,6-tetrahydro-pyridine-3-carboxylic acid [4-(3-bromo-phenylamino)-3-cyano-quinolin-6-yl]-amide]	–	40000	53	0.369 (≈ 0.798 µM)	3.19 (≈ 6.91 µM)	1.5 (≈ 3.23 µM)	> 5	IC50 [2]: > 21300 nM
COC[C@@H]1CCCN1CC#CC(=O)Nc1ccc2ncc(C#N)c(Nc3cccc(Br)c3)c2c1 [Example 79, 4-((2S)-2-Methoxymethylpyrrolidin-1-yl)but-2-ynoic Acid [4-(3-bromophenylamino)-3-cyanquinolin-6-yl]amide]	0.36	–	–	0.04 (≈ 0.0772 µM)	0.3 (≈ 0.579 µM)	0.01 (≈ 0.0193 µM)	0.1 (≈ 0.193 µM)	–
CCOc1c(Nc2ccc3ncc(C#N)c(Nc4cccc(Br)c4)c3c2)c(=O)c1=O [Example 85, 4-(3-Bromo-phenylamino)-6-(2-ethoxy-3,4-dioxo-cyclobut-1-enylamino)-quinoline-3-carbonitrile]	–	–	87	4.91 (≈ 10.6 µM)	27.6 (≈ 59.6 µM)	1.74 (≈ 3.76 µM)	18 (≈ 38.8 µM)	IC50 (Mek and Erk; read-out: Mek and Erk; coupled MEK 1 / ERK2; separate entries = separate tests): 1800 nM
COc1cc2ncc(C#N)c(Nc3ccc(F)c(Cl)c3)c2cc1NC(=O)C=CC[n+]1csc(C)c1 [Example 95, 3-{3-[4-(3-Chloro-4-fluoro-phenylamino)-3-cyano-7-methoxy-quinolin-6-ylcarbamoyl]-allyl}-5-methyl-thiazol-3-ium bromide]	5	–	–	–	–	–	–	–
COc1cc2ncc(C#N)c(Nc3ccc(F)c(Cl)c3)c2cc1NC(=O)C=CC[n+]1cscc1C [Example 96, 3-{3-[4-(3-Chloro-4-fluoro-phenylamino)-3-cyano-7-methoxy-quinolin-6-ylcarbamoyl]-allyl}-4-methyl-thiazol-3-ium bromide]	100	–	–	–	–	–	–	–
C=CCN(CC=C)CC=CC(=O)Nc1cc2c(Nc3ccc(F)c(Cl)c3)c(C#N)cnc2cc1OC [Example 103, 4-Diallylamino-but-2-enoic acid [4-(3-chloro-4-fluoro-phenylamino)-3cyano-7-methoxy-quinolin-6-yl]-amide]	8	–	–	–	–	–	–	–
COc1cc2ncc(C#N)c(Nc3ccc(F)c(Cl)c3)c2cc1NC(=O)C=CCN(CCO)CCO [Example 106, 4-[Bis-(2-hydroxy-ethyl)-amino]-but-2-enoic acid [4-(3-chloro-4-fluoro-phenylamino)-3-cyano-7-methoxy-quinolin-6-yl]-amide]	13	–	–	–	–	–	–	–
COc1cc2ncc(C#N)c(Nc3ccc(F)c(Cl)c3)c2cc1NC(=O)C=CCN1CCSCC1 [Example 107, 4-Thiomorpholin-4-yl-but-2-enoic acid [4-(3-chloro-4-fluoro-phenylamino)-3-cyano-7-methoxy-quinolin-6-yl]-amide]	500	–	–	–	–	–	–	–
COc1cc2ncc(C#N)c(Nc3ccc(F)c(Cl)c3)c2cc1NC(=O)C=CCN1CCN(CCO)CC1 [Example 108, 4-[4-(2-Hydroxy-ethyl)-piperazin-1-yl]-but-2-enoic acid [4-(3-chloro-4-fluoro-phenylamino)-3-cyano-7-methoxy-quinolin-6-yl]-amide]	26	–	–	–	–	–	–	–
COc1cc2ncc(C#N)c(Nc3ccc(F)c(Cl)c3)c2cc1NC(=O)C=CCN1CCOCCOCCOCC1 [Example 109, 4-(1,4,7-Trioxa-10-aza-cyclododec-10-yl)-but-2-enoic acid [4-(3-chloro-4-fluoro-phenylamino)-3-cyano-7-methoxy-quinolin-6-yl]-amide]	7	–	–	–	–	–	–	–
COc1cc2ncc(C#N)c(Nc3ccc(F)c(Cl)c3)c2cc1NC(=O)C=CCN(CC(C)O)CC(C)O (centres unmarked) [Example 115, 4-[Bis-(2-hydroxy-propyl)-amino]-but-2-enoic acid [4-(3-chloro-4-fluoro-phenylamino)-3-cyano-7-methoxy-quinolin-6-yl]-amide]	5	–	–	–	–	–	–	–
COc1cc2ncc(C#N)c(Nc3ccc(F)c(Cl)c3)c2cc1NC(=O)C=CCN1CCC(O)(O)CC1 [Example 119, 4-(4,4-Dihydroxy-piperidin-1-yl)-but-2-enoic acid [4-(3-chloro-4-fluoro-phenylamino)-3-cyano-7-methoxy-quinolin-6-yl]-amide]	0.05	–	–	–	–	–	–	–
